Values joined by “and” are separate entries in the source; they are usually repeats but may differ in a detail not shown here. Identical values can stand only once.

Consider 1 molecule from patent publication US10533032B2, “Crystalline form of benzylbenzene SGLT2 inhibitor” (THERACOS SUB, LLC, priority 2010, dated 2020).

Data set [1] in a line: Hygroscopicity test of crystalline compound 8 powder in desiccators over saturated salt solutions (weight increase, appearance). It is filed as physicochemical. To be noted: for Weight Increase: individual samples 1-3, listed as crystal compound 8. The procedure: The tendency toward hygroscopicity of crystalline compound 8 in powder form was tested at 75% and 92.5% relative humidity at 25° C. for up to 10 days. Reagents included: (1) water: in house, MilliQ, 18.2MΩ; (2) NaCl: AR grade; (3) KNO3: AR grade; (4) saturated NaC solution with extra NaCl solid for 25 OC/75% RH control; and (5) saturated KNO3 solution with extra KNO3 solid for 25 OC/92.5% RH control. Equipment used included (1) desiccators, 240 mm ID; and (2) weighing bottles with lids: 50 mm ID×30 mm height. The saturated salt solutions and solids were transferred into individual desiccators, and equilibrated at 25° C. at least overnight to reach the desired relative humidity readings. Four weighing bottles were placed into each desiccator, and equilibrated overnight. The empty weighing bottles were weighed and the tare weights recorded (W1). 0.5 g of crystalline compound 8 was added into three weighing bottles in each desiccator to form a thin layer with thickness of 1-2 mm. The sample weight in each bottle (W2) was recorded. One empty weighing bottle was used for blank calibration. The bottles were left in each desiccator with lids open. The lids were closed and each bottle accurately weighed on days 1, 5 and 10 (W3). The bottles were returned to each desiccator with lids open immediately after weighing. The following formula was used to calculate the weight increase: [formula] WB=the weight increase of empty weighing bottle.

The format of data set [2] is physicochemical. The text has this:
The crystalline compound of the present invention is also characterized by the unit cell data substantially in accordance with FIG. 7. Thermal gravimetric analysis (TGA) can also be used to characterize the crystalline compound of the present invention.

Data set [3] in a line: Hygroscopicity test of crystalline compound 8 powder in desiccators over saturated salt solutions (weight increase, appearance). It is filed as physicochemical. To be noted: for Weight Increase, Average: average of 3 samples; for Weight Increase: individual samples 1-3, listed as crystal compound 8.

Turning to `OC[C@H]1O[C@@H](c2ccc(Cl)c(Cc3ccc(OCCOC4CC4)cc3)c2)[C@H](O)[C@@H](O)[C@@H]1O` [crystalline compound 8, (2S,3R,4R,5S,6R)-2-(4-chloro-3-(4-(2-cyclopropoxyethoxy)benzyl)phenyl)-6-(hydroxymethyl)tetrahydro-2H-pyran-3,4,5-triol], the “Weight Increase, Average” value was 0.2447% in data set [1] (25° C./75% RH, 1 day, average of 3 samples); 0.1541% in data set [3] (25° C./75% RH, 5 days); 0.2593% in data set [3] (25° C./75% RH, 10 days); 0.119% in data set [3] (25° C./92.5% RH, 1 day); 0.1627% in data set [3] (25° C./92.5% RH, 5 days); 0.2295% in data set [3] (25° C./92.5% RH, 10 days). For the same molecule, the “Weight Increase” value was 0.3291% and 0.235% and 0.1698% in data set [1] (25° C./75% RH, 1 day); 0.1051% and 0.1995% and 0.1578% in data set [1] (25° C./75% RH, 5 days); 0.3509% and 0.2311% and 0.1957% in data set [1] (25° C./75% RH, 10 days); 0.05362% and 0.1036% and 0.1998% in data set [3] (25° C./92.5% RH, 1 day); 0.0417% and 0.2071% and 0.2394% in data set [3] (25° C./92.5% RH, 5 days); 0.2601% and 0.1633% and 0.2651% in data set [3] (25° C./92.5% RH, 10 days). Also, the Appearance entry is on record as “White powder” in data set [1] (25° C./75% RH, after 5 days); “White powder” in data set [1] (25° C./75% RH, after 10 days); “White powder” in data set [3] (25° C./75% RH, after 1 day); “White powder” in data set [3] (25° C./92.5% RH, after 1 day); “White powder” in data set [3] (25° C./92.5% RH, after 5 days); “White powder” in data set [3] (25° C./92.5% RH, after 10 days). Moreover, the hygroscopicity result in data set [1] (powder form, at the study conditions (75% and 92.5% RH, 25° C., up to 10 days)) is listed as “low hygroscopicity”. Further, in data set [1] (powder samples at 75% and 92.5% relative humidity at 25° C. for 10 days), the weight increases entry is listed as “below 0.26%”. The “thermal stability (TGA)” value in data set [2] is “above 200 °C”.
